In test [1] the test system is CD40L-induced MHC-II expression in human THP-1 cells. In words: cells. The following applies: for IC50: Homo sapiens, THP-1, 48 h, read-out: IC50, inhibition of CD40L-induced THP-1 activation. Here is the method: As a further assessment, the ability of the compounds of the disclosure to inhibit the CD40L-induced activation of THP-1 cells, which can serve as surrogate dendritic cells, was evaluated using an assay as described previously (see Margolles-Clark et al, J Mol Med 87:1133-1143 (2009)).
THP-1 human myeloid cells obtained from American Type Culture Collection (ATCC; Manasses, Va.) were cultivated in RPMI media 1640 supplemented with 10% FBS, 100 U/mL penicillin, and streptomycin 100 μg/mL to a density of 1×10^6 cells/mL. Cells were centrifuged and cultured in the same medium without FBS for a period of 24 hours. Starved cells were placed in fresh medium without FBS and stimulated with 0.5 μg/mL of rhCD154 (MegaCD40L; Enzo Life Sciences), in the presence of various concentrations of test compounds. After 48 h, cells were labeled with biotin conjugated monoclonal anti-human CD40 antibody (clone LOB7/6) (LifeSpan BioSciences, Seattle, Wash.), detected with allophycocyanin-eFluor™ 780 streptavidin (eBioscience, San Diego, Calif.), and labeled with monoclonal anti-human HLA-DR antibody APC-Alexa Fluor® 750 (clone LN3) (eBioscience, San Diego, Calif.). All cultivations were carried out for 48 h at 37° C., 90% humidity, and 5% CO2. Stained THP-1 cells were analyzed using a BD LSR II Flow Cytometer (BD Biosciences, San Jose, Calif.). Cell surface markers were quantified in live cells only after gating out 4′,6-diamidino-2-phenylindole (DAPI) labeled cells. All experiments were repeated at least three times.
Data are average±SD in live (DAPI^−) cells from five independent experiments and were analyzed by […] one-way ANOVA followed by Dunnett's multiple comparison test, *p<0.05, **p<0.01, ****p<0.0001 vs. cells+huCD40L.

For another test, the target named is T1, human CD40-CD40L (Homo sapiens, UniProt P29965).
T1 construct: purchased Enzo Life Sciences (San Diego, Calif.)
T1 sequence (P29965 116-261 limits assumed): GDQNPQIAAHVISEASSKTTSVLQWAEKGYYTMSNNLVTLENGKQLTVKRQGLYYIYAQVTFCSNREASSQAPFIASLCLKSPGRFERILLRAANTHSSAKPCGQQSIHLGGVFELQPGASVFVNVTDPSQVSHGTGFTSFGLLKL
Description: Cell-free ELISA-type CD40-CD40L binding inhibition assay. Here is the method: Compounds according to the disclosure were assessed for their ability to inhibit the binding of tagged ligands to plate-bound receptors using ELISA-type 96-well plate-based cell-free assays as described in the literature (see Margolles-Clark et al, J Mol Med 87:1133-1143 (2009); Margolles-Clark et al., Chem Biol Drug Des 76:305-313 (2010); Song et al., Br J Pharmacol 171:4955-4969 (2014); and Ganesan et al., Biochem Pharmacol 81:810-818 (2011)).
Recombinant receptors (hCD40:Fc, TNF-R1:Fc) and tagged ligands (hCD154, MegaCD40L, and TNF-α), were obtained from Enzo Life Sciences (San Diego, Calif.). Microtiter plates (Nunc F Maxisorp; 96-well) were coated overnight at 4° C. with 100 μL/well of Fc chimeric receptors diluted in PBS 7.2. This was followed by blocking with 200 μL/well of blocking solution (PBS 7.2, 0.05% Tween-20, 1% BSA) for 1 hour at room temperature. […] Either anti-FLAG-HRP or streptavidin-HRP conjugate was used to detect the bound FLAG-tagged or biotinylated ligand, respectively. Plates were washed three times before the addition of 120 μL/well of HRP substrate TMB (3, 3′, 5, 5′-tetramethylbenzidine) and kept in the dark for 15-30 min. The reaction was stopped using 30 μL 1M H2SO4, and the absorbance was read at 450 nm. Stock solutions of compounds at 10 mM in DMSO were used.
Typical concentrations used were as follows—receptors: 0.3 μg/mL for CD40, TNF-R1, and RANK; 0.6 μg/mL for BAFF-R, OX40, and 4-1BB; and 2 μg/mL for EGF-R-ligands: 0.02 μg/mL for CD40L, TNFα, and RANKL; 0.2 μg/ml for BAFF, OX40L, 4-1BBL; and 0.3 μg/mL for EGF. Assays were done in duplicate or triplicate per plate and repeated at least three times; the averaged data were normalized and used for data fitting and analysis. Binding data were fitted using the standard log inhibitor versus response model in GraphPad Prism to determine the corresponding IC50 values.
Background: In an ELISA, binding on a coated surface is turned into a signal by an enzyme label.

Test [2] has as its system Balb/c skin grafts in C57BL/6 mice. Description: Skin allograft survival model. The format is in vivo, mouse. The following applies: CTLA4-Ig plus 21045 30 mg/kg daily s.c. in 20% HPβCD.
Description: Full-thickness ear skins from donor mice (Balb/c, Jackson Laboratory; Bar Harbor, Me.) were transplanted onto the dorsal thorax of recipient mice (C57BL/6, Jackson Laboratory) by placing them on ˜1 cm diameter graft beds and securing with bandages.
[3] abbreviates: IC50, inhibition of the CD40-CD40L interaction, cell-free binding, n=3 independent experiments.

Where two headings read alike, the source gives them in different places.

The IC50 is the concentration needed to halve the response being measured.

Consider `O=C(Nc1ccc(-c2ccc(C(=O)Nc3cccc4cccc(S(=O)(=O)O)c34)cc2)cc1)c1ccc([N+](=O)[O-])cc1` [Compound 21041, 8-[(4′-[4-nitrobenzamido]biphenyl-4-yl-carbonyl)amino]naphthalene-1-sulfonic acid], for which the IC50 in test [1] is roughly 10 µM; at human CD40-CD40L (setting [3]), 310 nM; at human CD40-CD40L (IC50 CD40, Table 2) it was 300 nM. Besides, the “inhibition of CD40L-induced MHC-II expression in THP-1 cells (in words)” value (from here on “inhibition … in THP-1 cells (in words)”) in test [1] is “concentration-dependent inhibition”. Further, the “inhibition of human CD40-CD40L binding (in words)” value at human CD40-CD40L (cell-free binding) is reported as “concentration-dependent inhibition”.

As to `COC(=O)c1ccc(C(=O)Nc2ccc(-c3ccc(C(=O)Nc4cccc5cccc(S(=O)(=O)O)c45)cc3)cc2)cc1` [Compound 21045], the “inhibition … in THP-1 cells (in words)” value in test [1] is “concentration-dependent inhibition”. For the same molecule, the IC50 at human CD40-CD40L (Table 2, read-out: IC50 CD40) was 100 nM; at human CD40-CD40L (cell-free binding, n=3 independent experiments, read-out: IC50, inhibition of the CD40-CD40L interaction) it was 140 nM. Besides, the “inhibition of human CD40-CD40L binding (in words)” value at human CD40-CD40L (cell-free binding) was “concentration-dependent inhibition”. For the same molecule, in test [2], the “mean survival time (MST) of skin grafts” value is 15 days.

Consider `O=C(Nc1ccc(-c2ccc(C(=O)Nc3ccc(C(=O)O)c4ccccc34)cc2)cc1)c1ccc([N+](=O)[O-])cc1` [Compound 25441], for which the IC50 was roughly 10 µM in test [1]; 360 nM on human CD40-CD40L (setting [3]); 400 nM at human CD40-CD40L (Table 2, read-out: IC50 CD40). In addition, the “inhibition … in THP-1 cells (in words)” value in test [1] is recorded as “concentration-dependent inhibition”. For the same molecule, at human CD40-CD40L (cell-free binding), the “inhibition of human CD40-CD40L binding (in words)” value is on record as “concentration-dependent inhibition”.

The values are drawn from patent publication US10562848B2, “Inhibitors of TNF superfamily costimulatory interactions and methods for uses of the same” (UNIVERSITY OF MIAMI, priority 2015, dated 2020).
